The values that follow are results of earlier work, collected in patent US20210251906A1, “[…]-RELEASE FORMULATIONS” (Mylan Inc., priority 2018, published 2021).

The conditions of data set [1]: in water and in basic and acidic aqueous solutions.
For data set [2] the following is noted: in vivo.

SMILES strings stand for the structures.

In the case of `CC(C)C[C@H](CN)CC(=O)O` [Pregabalin, (S)-3-(aminomethyl)-5-methylhexanoic acid], the Solubility result in data set [1] was “freely soluble”. Also, the Elimination half-life entry in data set [2] is “about 6.3 hours”.
